Data published in ChEMBL document CHEMBL3864183, “Development of ML390: A Human DHODH Inhibitor That Induces Differentiation in Acute Myeloid Leukemia” (ACS Med Chem Lett, 2016).
≈ marks a conversion by molar mass, not a printed value.

Tests used:
[1] = Induction of bone marrow cell differentiation isolated from ER-HOXA9 fusion protein expressed mouse harboring GFP-lysozyme assessed as upregulation of CD11b/MAC1 after 4 days by flow cytometry; assay type: functional, cell-based; details: 96 h
[2] = biological target: Dihydroorotate dehydrogenase (quinone), mitochondrial (Homo sapiens, UniProt Q02127); assay: Inhibition of human recombinant DHODH
Sequence of Dihydroorotate dehydrogenase (quinone), mitochondrial (Q02127 whole entry): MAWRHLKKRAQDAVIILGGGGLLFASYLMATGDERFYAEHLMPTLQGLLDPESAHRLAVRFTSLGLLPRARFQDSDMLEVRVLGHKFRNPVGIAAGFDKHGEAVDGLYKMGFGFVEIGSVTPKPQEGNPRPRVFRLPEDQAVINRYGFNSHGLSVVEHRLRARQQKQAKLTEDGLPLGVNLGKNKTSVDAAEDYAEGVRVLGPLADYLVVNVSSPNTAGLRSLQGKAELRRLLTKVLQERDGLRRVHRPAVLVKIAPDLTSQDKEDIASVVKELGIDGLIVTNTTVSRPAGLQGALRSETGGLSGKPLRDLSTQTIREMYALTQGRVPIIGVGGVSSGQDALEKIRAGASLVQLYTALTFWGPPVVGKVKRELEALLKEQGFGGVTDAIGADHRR

U-937 = assay: Induction of human U937 cell differentiation after 4 days by flow cytometry; assay type: functional, cell-based; details: U-937, 96 h
THP-1 = assay: Induction of human THP1 cell differentiation after 4 days by flow cytometry; assay type: functional, cell-based; details: THP-1, 96 h
[3] = Solubility of the compound in PBS at pH 7.4; assay type: physicochemical
[4] = Protein binding in mouse plasma; assay type: ADME, cell-free; details: read-out: PPB
[5] = Protein binding in human plasma; assay type: ADME, cell-free; details: read-out: PPB
[6] = Stability of the compound in PBS for 24 hrs; assay type: physicochemical; details: buffer
[7] = Stability of the compound in human plasma for 5 hrs; assay type: ADME, cell-free

EC50 [1] [µM] | IC50 [2] [µM] | EC50 (U-937) [µM] | EC50 (THP-1) [µM] | Compound | other results
3 | 0.4 | 6.1 | 10.7 | O=C(O)c1cccnc1Nc1ccc(Cl)cc1 | –
> 20 | 10 | > 20 | > 20 | COc1ccc(Nc2ccccc2C(=O)O)cc1 | –
10 | 0.42 | 17 | > 20 | O=C(O)c1ccccc1Nc1ccc(Cl)cc1 | –
– | 8.9 | – | – | N#Cc1ccc(C(=O)NCCC(=O)N[C@@H]2CCCc3ccccc32)cc1 | –
3.6 | 0.91 | 2.7 | 2.5 | O=C(CCNC(=O)c1ccc(C(F)(F)F)cc1)N[C@@H]1CCCc2ccccc21 | –
1.8 | 0.56 | 8.8 | 6.5 | O=C(CCNC(=O)c1ccc(OC(F)(F)F)cc1)N[C@@H]1CCCc2ccccc21 | solubility [3]: 2.5 µM (≈ 1.02 µg/mL); fraction unbound [4]: 0.01; fraction unbound [5]: 0.01; Stability [6]: Stable; Stability [7]: Stable
– | > 20 | – | – | O=C(CNC(=O)c1ccc(Cl)c(Cl)c1)N[C@@H]1CCCc2ccccc21 | –
8.1 | 1.9 | 4.2 | 2.7 | Cc1ccc(C(=O)NCCC(=O)N[C@@H]2CCCc3ccccc32)cc1 | –
– | 9.5 | – | – | O=C(CCNC(=O)c1ccc(F)cc1)N[C@@H]1CCCc2ccccc21 | –
7.9 | 7.4 | 8.8 | 6.5 | O=C(CCNC(=O)c1cccc(Cl)c1)N[C@@H]1CCCc2ccccc21 | –
4.5 | 1.3 | 5.6 | 3.2 | O=C(CCNC(=O)c1ccc(Cl)cc1)N[C@@H]1CCCc2ccccc21 | –
– | > 20 | – | – | O=C(CCCNC(=O)c1ccc(Cl)c(Cl)c1)N[C@@H]1CCCc2ccccc21 | –
5 | 3.6 | 12 | 5.1 | COc1ccc(C(=O)NCCC(=O)N[C@@H]2CCCc3ccccc32)cc1 | –
4.7 | 2.7 | 4.4 | 4.3 | O=C(CCNC(=O)c1ccc2c(c1)OC(F)(F)O2)N[C@@H]1CCCc2ccccc21 | –
3.2 | 1.5 | 2.4 | 2.5 | O=C(CCNC(=O)c1ccc(Cl)c(Cl)c1)N[C@@H]1CCCc2ccccc21 | –
– | > 20 | – | – | O=C(CCCNC(=O)c1ccc(Cl)cc1)N[C@@H]1CCCc2ccccc21 | –
– | 12.4 | – | – | O=C(CCNC(=O)c1ccccc1)N[C@@H]1CCCc2ccccc21 | –
– | > 20 | – | – | O=C(CNC(=O)c1ccc(C(F)(F)F)cc1)N[C@@H]1CCCc2ccccc21 | –
3.7 | 0.5 | 5.6 | 7.7 | O=C(O)c1cccnc1Nc1ccc(OC(F)(F)F)cc1 | –
> 20 | 2.8 | > 20 | > 20 | O=C(O)c1cccnc1Nc1ccc(F)cc1 | –
> 20 | 17.4 | > 20 | > 20 | O=C(O)c1cccnc1Nc1ccccc1 | –
– | > 20 | – | – | O=C(CCCNC(=O)c1ccc(OC(F)(F)F)cc1)N[C@@H]1CCCc2ccccc21 | –
– | > 20 | – | – | O=C(CNC(=O)c1ccc(Cl)cc1)N[C@@H]1CCCc2ccccc21 | –
> 20 | > 20 | > 20 | > 20 | O=C(O)c1ccc(Cl)cc1Nc1ccccc1 | –
– | > 20 | – | – | O=C(CNC(=O)c1ccc(OC(F)(F)F)cc1)N[C@@H]1CCCc2ccccc21 | –
– | > 20 | – | – | O=C(CCCNC(=O)c1ccc(C(F)(F)F)cc1)N[C@@H]1CCCc2ccccc21 | –
0.51 | – | 0.044 | 0.094 | Cc1c(-c2ccc(-c3ccccc3F)cc2)nc2ccc(F)cc2c1C(=O)O [BREQUINAR] | –
> 20 | 13 | > 20 | > 20 | Cc1c(Cl)cccc1Nc1ncccc1C(=O)O [CLONIXIN] | –
16 | 8 | > 20 | > 20 | Cc1c(Nc2ncccc2C(=O)O)cccc1C(F)(F)F [FLUNIXIN] | –
> 20 | 17 | > 20 | > 20 | O=C(O)c1cccnc1Nc1cccc(C(F)(F)F)c1 [NIFLUMIC ACID] | –
